Source: patent US20240398805A1, “QUINAZOLINE DERIVED COMPOUNDS AS EGFR INHIBITORS AND THEIR USES THEREOF” (ACCUTAR BIOTECHNOLOGY INC., priority 2021, published 2024)

Assays:
Format in all cases: cell-based
[1] = system: HCC827-SVD cells (human EGFR exon 20 insertion mutant D770_N771 insSVD); assay: Cell growth inhibition (CellTiter-Glo, 3 days) in HCC827-SVD; details: 72 h, 3 days after administration
Method: (§1) 1. Preparation of HCC827-SVD, HCC827-ASV and HCC827-YVMA Cell Lines
HCC827-SVD cell line were generated by first transducing HCC827 cells (ATCC) with lentiviral particles expressing codon-optimized human EGFR exon 20 insertion mutant D770_N771 insSVD, and then selecting under 5 μg/ml purimycin treatment for a week.
The resulting cells were further transduced with lentiviral particles carrying EGFR sgRNA and CAS9 to knockout the endogenous alleles of EGFR, and then selected under 500 μg/ml hygromycin B treatment for two weeks. Single clone was subsequently generated by limiting dilution approach. Endogenous EGFR knockout was confirmed by Sanger sequencing of cell genomic DNA and expression of exogenous mutant EGFR was verified by Western blot analysis.
(§2) 2. Cell Growth Inhibition for HCC827, HCC827-SVD, HCC827-ASV, HCC827-YVMA and A431.
(§3) HCC827(ATCC), HCC827-SVD, HCC827-ASV, HCC827-YVMA were seeded in 96-well plates at 5000 cells/well in 90 μl of RPMI growth medium containing 10% FBS and 1% Penicillin Streptomycin. A431 (ATCC) cells were seed in 96-well plates at 5000 cells/well in 90 μl of DMEM growth medium containing 10% FBS and 1% Penicillin Streptomycin. Cells were incubated at 3700 overnight. The following day, the test compound was administered to the cells by using 1 Ox compound stock solution prepared in growth medium at various concentrations. After administration of the compound, cells were then incubated at 3700 for 3 days. Before CeIlTiter-Glo assay, the plates were equilibrated at room temperature for approximately 10 minutes. 100 ul of CelTiter-Glo® Reagent (Promega) was added to each well. The plates were then incubated at room temperature for 10 minutes and luminescence was recorded by EnSpire plate reader (PerkinElmer).

HCC827 cells = assay: Cell growth inhibition (CellTiter-Glo, 3 days) in HCC827; details: Homo sapiens, 72 h, 3 days after administration
Method: as §2, §3

[2] = system: HCC827-ASV cells (human EGFR exon 20 insertion mutant A769_D770insASV); assay: Cell growth inhibition (CellTiter-Glo, 3 days) in HCC827-ASV; details: 72 h, 3 days after administration
Text: as §1
(§4) HCC827-ASV and HCC827-YVMA cell lines were generated in the similar approach as HCC827-SVD except that HCC827 cells (ATCC) were first transduced with lentiviral particles expressing codon-optimized human EGFR exon 20 insertion mutant A769_D770insASV and human ERBB2 exon20 insertion mutant A775_G776ins YVMA, respectively.
as §2, §3

[3] = system: HCC827-YVMA cells (human ERBB2 exon20 insertion mutant A775_G776ins YVMA); assay: Cell growth inhibition (CellTiter-Glo, 3 days) in HCC827-YVMA; details: 72 h, 3 days after administration
Text: as §1, §4, §2, §3

A431 cells = assay: Cell growth inhibition (CellTiter-Glo, 3 days) in A431; details: Homo sapiens, A-431, 72 h, 3 days after administration
Method: as §2, §3

SMILES	GI50 [1]	GI50 (HCC827 cells)	GI50 [2]	GI50 [3]	GI50 (A431 cells)
C=CC(=O)N1CCC(Nc2cc3c(Nc4ccc(Oc5ccnc(N6CC[C@@H](O)C6)c5)cc4F)ncnc3cc2OC)CC1 [Example 173, (R)-1-(4-((4-((2-fluoro-4-((2-(3-hydroxypyrrolidin-1-yl)pyridin-4-yl)oxy)phenyl)amino)-7-methoxyquinazolin-6-yl)amino)piperidin-1-yl)prop-2-en-1-one]	100 to 300 nM	300 to 600 nM	60 to 100 nM	100 to 300 nM	≥ 1000 nM
C=CC(=O)N1CCC(Nc2cc3c(Nc4ccc(Oc5ncc(N6C[C@@H](C)O[C@@H](C)C6)cn5)cc4F)ncnc3cc2OC)CC1 [Example 110, 1-(4-((4-((4-((5-((2R,6S)-2,6-dimethylmorpholino)pyrimidin-2-yl)oxy)-2-fluorophenyl)amino)-7-methoxyquinazolin-6-yl)amino)piperidin-1-yl)prop-2-en-1-one]	≥ 1000 nM	< 30 nM	≥ 1000 nM	≥ 1000 nM	100 to 300 nM
C=CC(=O)N1CCC(Nc2cc3c(Nc4ccc(Oc5ccnc(N6CC(C(F)(F)F)C6)c5)cc4F)ncnc3cc2OC)CC1 [Example 161, 1-(4-((4-((2-fluoro-4-((2-(3-(trifluoromethyl)azetidin-1-yl)pyridin-4-yl)oxy)phenyl)amino)-7-methoxyquinazolin-6-yl)amino)piperidin-1-yl)prop-2-en-1-one]	< 30 nM	100 to 300 nM	< 30 nM	< 30 nM	300 to 600 nM
C=CC(=O)N1CCC(Nc2cc3c(Nc4ccc(Oc5ccnc(N6C[C@H]7C[C@@H]6CO7)c5)cc4F)ncnc3cc2OC)CC1 [Example 134, 1-(4-((4-((4-((2-((1R,4R)-2-oxa-5-azabicyclo[2.2.1]heptan-5-yl)pyridin-4-yl)oxy)-2-fluorophenyl)amino)-7-methoxyquinazolin-6-yl)amino)piperidin-1-yl)prop-2-en-1-one]	30 to 60 nM	100 to 300 nM	< 30 nM	30 to 60 nM	600 to 1000 nM
C=CC(=O)N1CCC(Nc2cc3c(Nc4ccc(Oc5ccnc(N[C@H]6CCOC6)c5)cc4F)ncnc3cc2OC)CC1 [Example 247, (S)-1-(4-((4-((2-fluoro-4-((2-((tetrahydrofuran-3-yl)amino)pyridin-4-yl)oxy)phenyl)amino)-7-methoxyquinazolin-6-yl)amino)piperidin-1-yl)prop-2-en-1-one]	60 to 100 nM	100 to 300 nM	60 to 100 nM	30 to 60 nM	600 to 1000 nM
C=CC(=O)N1CCC(Nc2cc3c(Nc4ccc(Oc5ccnc(-c6ccncc6)c5)cc4F)ncnc3cc2OC)CC1 [Example 238, 1-(4-((4-((4-([2,4′-bipyridin]-4-yloxy)-2-fluorophenyl)amino)-7-methoxyquinazolin-6-yl)amino)piperidin-1-yl)prop-2-en-1-one]	< 30 nM	100 to 300 nM	< 30 nM	< 30 nM	≥ 1000 nM
C=CC(=O)N1CCC(Nc2cc3c(Nc4ccc(Oc5ccnc(N6CC7(CCOCC7)C6)c5)cc4F)ncnc3cc2OC)CC1 [Example 204, 1-(4-((4-((4-((2-(7-oxa-2-azaspiro[3.5]nonan-2-yl)pyridin-4-yl)oxy)-2-fluorophenyl)amino)-7-methoxyquinazolin-6-yl)amino)piperidin-1-yl)prop-2-en-1-one]	< 30 nM	60 to 100 nM	< 30 nM	< 30 nM	100 to 300 nM
C=CC(=O)N1CCC(Nc2cc3c(Nc4ccc(Oc5ccnc(-c6ccccn6)c5)cc4F)ncnc3cc2OC)CC1 [Example 236, 1-(4-((4-((4-([2,2′-bipyridin]-4-yloxy)-2-fluorophenyl)amino)-7-methoxyquinazolin-6-yl)amino)piperidin-1-yl)prop-2-en-1-one]	< 30 nM	100 to 300 nM	< 30 nM	< 30 nM	≥ 1000 nM
C=CC(=O)N1CCC(Nc2cc3c(Nc4cc(Cl)c(Oc5ccn(-c6cnc(C)c(F)c6)n5)cc4F)ncnc3cc2OC)CC1 [Example 19, 1-(4-((4-((5-chloro-2-fluoro-4-((1-(5-fluoro-6-methylpyridin-3-yl)-1H-pyrazol-3-yl)oxy)phenyl)amino)-7-methoxyquinazolin-6-yl)amino)piperidin-1-yl)prop-2-en-1-one]	30 to 60 nM	< 30 nM	30 to 60 nM	60 to 100 nM	100 to 300 nM
C=CC(=O)N1CCC(Nc2cc3c(Nc4ccc(Oc5ccnc(N6CCC(C)(O)C6)c5)cc4F)ncnc3cc2OC)CC1 (stereo not shown) [Example 149, 1-(4-((4-((2-fluoro-4-((2-(3-hydroxy-3-methylpyrrolidin-1-yl)pyridin-4-yl)oxy)phenyl)amino)-7-methoxyquinazolin-6-yl)amino)piperidin-1-yl)prop-2-en-1-one]	30 to 60 nM	100 to 300 nM	30 to 60 nM	60 to 100 nM	100 to 300 nM
C=CC(=O)N1CCC(Nc2cc3c(Nc4ccc(Oc5ccn(-c6cnc(C)nc6)n5)cc4F)ncnc3cc2OC)CC1 [Example 92, 1-(4-((4-((2-fluoro-4-((1-(2-methylpyrimidin-5-yl)-1H-pyrazol-3-yl)oxy)phenyl)amino)-7-methoxyquinazolin-6-yl)amino)piperidin-1-yl)prop-2-en-1-one]	< 30 nM	60 to 100 nM	< 30 nM	< 30 nM	100 to 300 nM
C=CC(=O)N1CCC(Nc2cc3c(Nc4ccc(Oc5ccn(-c6cnc7ccccc7c6)n5)cc4F)ncnc3cc2OC)CC1 [Example 91, 1-(4-((4-((2-fluoro-4-((1-(quinolin-3-yl)-1H-pyrazol-3-yl)oxy)phenyl)amino)-7-methoxyquinazolin-6-yl)amino)piperidin-1-yl)prop-2-en-1-one]	30 to 60 nM	100 to 300 nM	60 to 100 nM	100 to 300 nM	100 to 300 nM

The remaining lines, values ahead:

GI50 [1]	GI50 (HCC827 cells)	GI50 [2]	GI50 [3]	GI50 (A431 cells)	SMILES
< 30 nM	100 to 300 nM	< 30 nM	< 30 nM	100 to 300 nM	C=CC(=O)N1CCC(Nc2cc3c(Nc4ccc(Oc5ccnc(N6CC(C)(O)C6)c5)cc4F)ncnc3cc2OC)CC1 [Example 203, 1-(4-((4-((2-fluoro-4-((2-(3-hydroxy-3-methylazetidin-1-yl)pyridin-4-yl)oxy)phenyl)amino)-7-methoxyquinazolin-6-yl)amino)piperidin-1-yl)prop-2-en-1-one]
300 to 600 nM	300 to 600 nM	100 to 300 nM	100 to 300 nM	≥ 1000 nM	C=CC(=O)N1CCC(Nc2cc3c(Nc4ccc(Oc5cc(N6C[C@@H](C)O[C@@H](C)C6)ncc5Cl)cc4F)ncnc3cc2OC)CC1 [Example 108, 1-(4-((4-((4-((5-chloro-2-((2R,6S)-2,6-dimethylmorpholino)pyridin-4-yl)oxy)-2-fluorophenyl)amino)-7-methoxyquinazolin-6-yl)amino)piperidin-1-yl)prop-2-en-1-one]
30 to 60 nM	60 to 100 nM	60 to 100 nM	60 to 100 nM	30 to 60 nM	C=CC(=O)N1CCC(Nc2cc3c(Nc4ccc(Oc5ccn(-c6cnc(C)c(C)c6)n5)cc4F)ncnc3cc2OC)CC1 [Example 36, 1-(4-((4-((4-((1-(5,6-dimethylpyridin-3-yl)-1H-pyrazol-3-yl)oxy)-2-fluorophenyl)amino)-7-methoxyquinazolin-6-yl)amino)piperidin-1-yl)prop-2-en-1-one]
< 30 nM	100 to 300 nM	< 30 nM	< 30 nM	600 to 1000 nM	C=CC(=O)N1CCC(Nc2cc3c(Nc4ccc(Oc5ccnc(N6CC[C@@H](F)C6)c5)cc4F)ncnc3cc2OC)CC1 [Example 195, (R)-1-(4-((4-((2-fluoro-4-((2-(3-fluoropyrrolidin-1-yl)pyridin-4-yl)oxy)phenyl)amino)-7-methoxyquinazolin-6-yl)amino)piperidin-1-yl)prop-2-en-1-one]
30 to 60 nM	100 to 300 nM	30 to 60 nM	60 to 100 nM	300 to 600 nM	C=CC(=O)N1CCC(Nc2cc3c(Nc4ccc(Oc5ccnc(N6CCC(OC)C(C)(C)C6)c5)cc4F)ncnc3cc2OC)CC1 (stereo not shown) [Example 159, 1-(4-((4-((2-fluoro-4-((2-(4-methoxy-3,3-dimethylpiperidin-1-yl)pyridin-4-yl)oxy)phenyl)amino)-7-methoxyquinazolin-6-yl)amino)piperidin-1-yl)prop-2-en-1-one]
